Test results from publication PMC6271910, “Exploiting Natural Products to Build Metalla-Assemblies: The Anticancer Activity of Embelin-Derived Rh(III) and Ir(III) Metalla-Rectangles” (Molecules, 2014).
Like-named read-outs stand apart in the source and are kept apart here.

Experiments:
[1] = tested on: HeLa cells (cervical cancer); test: MTT assay, HeLa; assay type: cell-based, human; settings: 48 h, averaged over three experiments, read-out: Half maximum inhibitory concentration (IC50), HeLa
Procedure: (§1) To understand the effect of these complexes on the proliferation of cancerous and noncancerous cells, MTT assays were carried out following the protocol reported by Wilson et al.. The noncancerous (HEK-293) and the human cancerous cell lines (DU-145, A-549 and HeLa) were grown according to the supplier’s recommendations. All cell lines were treated for 48 h at different concentrations of complexes (0.25 µM, 0.5 µM, 0.75 µM, 1 µM, 5 µM, 10 µM, 25 µM, 50 µM and 100 µM). After treatment, the number of viable cells was estimated using a MTT assay. […] Cells treated with doxorubicin in the same concentration range were considered as controls.
(§2) The anticancer activity of the complex was determined using the 3-(4,5-dimethylthiazol-2-yl)-2,5-diphenyltetrazolium bromide (MTT) assay. First 1 × 10^4 cells per well were seeded in Dulbecco’s modified Eagle’s medium (DMEM, 100 µL) supplemented with 10% fetal bovine serum in each well of 96-well microculture plates and incubated for 24 h at 37 °C in a CO2 incubator. Complexes were diluted to the desired concentrations in culture medium and added to the wells with respective vehicle control. After 48 h of incubation, MTT (10 µL, 5 mg mL^−1) was added to each well and the plates were further incubated for 4 h. Then the supernatant from each well was carefully removed, formazan crystals were dissolved in DMSO (100 µL) and absorbance at 570 nm was recorded.

[2] = tested on: A-549 cells (lung cancer); test: MTT assay, A-549; assay type: cell-based, human
Procedure: as §1, §2

[3] = tested on: DU-145 cells (prostate cancer); test: MTT assay, DU-145; assay type: cell-based, human; settings: averaged over three experiments, read-out: Half maximum inhibitory concentration (IC50), DU-145
Procedure: as §1, §2

[4] = tested on: CT DNA (calf-thymus DNA); test: Thermal denaturation study of CT DNA; assay type: binding; settings: for ΔTm of CT DNA: incubation 12 h at 37 °C, PE buffer pH 7.4, complex/DNA ratio 1:1, CT DNA alone melts at 59.3 °C
Procedure: The DNA binding affinity of the synthesized complexes was evaluated through thermal denaturation studies with duplex CT DNA using a modified reported procedure. […]

[5] = tested on: HEK-293 (normal human embryonic kidney cells); test: MTT assay, HEK-293; assay type: cell-based; settings: for IC50: 48 h, MTT, noncancerous cells, averaged over three experiments, read-out: Half maximum inhibitory concentration (IC50), HEK-293; for Selectivity for cancerous over noncancerous cells (HEK-293): IC50 on HEK-293 compared with cancer cell lines
Procedure: as §1, §2

[6] = tested on: CT DNA; test: UV-visible spectroscopic titrations with CT DNA; assay type: binding, calf; settings: 25 µM complex, KBPES buffer pH 7.0, 25 °C
From the text: The mode of the DNA-complex interaction was further studied by UV-visible experiments. The results from these studies will indicate the mode of DNA-complex interaction. The UV-visible spectra of metalla-rectangles 4, 6 and 8, the iridium derivatives, show a prominent absorption band at 210 nm. […] The hyperchromicity of the Soret band of the metalla-rectangles was more evident at 210 nm. A continuous hyperchromicity of the Soret band upon addition of metalla-rectangles 4, 6 and 8 to a CT DNA solution is an indication of electrostatic binding or partial unwinding of the CT DNA [27].
UV-Visible spectroscopic titrations were performed using an ABI Lambda 40 UV/Vis spectrophotometer (Foster City, CA, USA) at 25 °C using 1 cm path length quartz cuvettes. Stock solutions of complex (25 µM) was prepared in DMSO and CT DNA (25 µM) were prepared in KBPES buffer (30 mM Potassium Phosphate with 100 mM KCl, pH 7.0). The quartz cells were thoroughly cleaned with distilled water and followed by nitric acid (~0.1 N) after each experiment. UV-visible absorption titrations were done by adding CT DNA stock solution (25 µM) in KBPES buffer (30 mM Potassium Phosphate with 100 mM KCl, pH 7.0) to the quartz cuvette containing approximately 25 µM complex solutions. Preparation of CT DNA and complex solutions was done on the same day as the experiment. Titrations were performed until the band remained at a fixed wavelength upon successive additions of CT DNA.

[7] = tested on: CT DNA; test: CD spectroscopic study with CT DNA; assay type: binding, calf; settings: CT DNA/complex 1:0.5 to 1:1, KBPES buffer pH 7.0, 25 °C
Procedure: Circular dichroism (CD) studies can provide information on the changes in the DNA conformation upon interactions with small molecules. These changes in the DNA topology are giving useful information on the nature of the DNA-complex interactions. […] These bands are characteristic to the profile of the B form of DNA [24].
Circular dichroism (CD) experiments were performed using a Jasco 815 CD spectropolarimeter (Jasco, Tokyo, Japan). CD spectra were recorded from 230 to 300 nm to find the conformational changes in the CT DNA after interaction with the complexes. For each CD experiment, CT DNA (15 × 10^‒6 M) was used initially. Further, for the characterization of complex‒DNA interaction, the CD spectra were recorded in 1:0.5 and 1:1 CT DNA/complex molar ratios. CD titrations were performed in KBPES buffer (30 mM Potassium Phosphate with 100 mM KCl, pH 7.0) at 25 °C. Each spectrum was recorded three times and the average of three scans was taken.

[8] = tested on: A-549 cells; test: Apoptosis assay (annexin-V/propidium iodide flow cytometry); assay type: cell-based, human; settings: A-549, 500 nM, 48 h; for Early apoptotic (%): control 0.84; for Late apoptotic (%): control 6.18; for Necrotic (%): control 14.61; for Living cells (%): control 78.37; for Total apoptotic cells (%): early + late apoptotic, control 7.02
[9] = tested on: A-549 cells; test: Cell cycle assay by flow cytometry (propidium iodide); assay type: cell-based, human; settings: A-549, 500 nM, 24 h; for Sub G1 (%): control 1.37; for G2/M (%): control 16.37; for S (%): control 17.15; for G0/G1 (%): control 54.62
Procedure: In order to corroborate the results obtained in the MTT assays and to better understand the action of metalla-rectangles 3 and 8 on cells, the effects on the cell cycle inhibition and the interference in cell proliferations using a standard cell cycle assay were studied. The results obtained are presented in (Table 2). On analyzing the results, it was evident that the cell cycle was inhibited at the subG1 phase with both metalla-rectangles.
Flow cytometric analysis (FACS) was performed to evaluate the distribution of the cells in different cell cycle phases. A-549 cells were incubated with metalla-rectangles 3 and 8 at 500 nM concentration for 24 h. Untreated cells were considered as control sample. Untreated and treated cells were harvested, washed with PBS, fixed in ice cold 70% ethanol and stained with propidium iodide (Sigma Aldrich, St. Louis, MO, USA). Cell cycle was performed by using Becton Dickinson FACS Caliber (Franklin Lakes, NJ, USA).

[10] = tested on: A-549 cells; test: Mitochondrial outer membrane permeability assay (MitoTracker Red, confocal microscopy); assay type: cell-based, human; settings: A-549, 500 nM
Procedure: The aggregation of mitochondria was reported to occur when cells enter into apoptosis, and accordingly led to the release of cytochrome c into the cytosol, which in turn triggered the cascade pathway to apoptosis. From Figure 6, it was clear that mitochondria were getting bundled with metalla-rectangle 3, indicating the onset of apoptosis in A-549 cells.
Compound [3](CF3SO3)4 (500 nM) with treated and untreated A-549 cells were incubated in a medium containing MitoTracker Red™ (50 nM) for 30 min at culture conditions recommended by the supplier. Cells were washed and fixed with 4% paraformaldehyde for 15 min, and permeabilized with Triton X-100 (0.1%) for each 10 min. The cover glasses after PBS wash were mounted on to the glass slides, sealed with nail polish and observed using laser scanning confocal microscopy (Leica TCS SP5, Heidelberg, Germany). The MitoTracker Red™ was excited using 543 nm laser source and the fluorescence emission signals were collected at 570 nm to 635 nm.

[11] = 48 h, averaged over three experiments, read-out: Half maximum inhibitory concentration (IC50), A-549
[12] = 48 h, read-out: IC50 in A-549 cells

| Compound | ΔTm of CT DNA [4] | IC50 [5] | IC50 [1] | IC50 [2, 11] | Change of the absorption (Soret) band at 210 nm on addition of CT DNA [6] | IC50 ([3]; 48 h) | further results |
| --- | --- | --- | --- | --- | --- | --- | --- |
| COc1cccc2c1C(=O)c1c(O)c3c(c(O)c1C2=O)C[C@@](O)(C(=O)CO)C[C@@H]3O[C@H]1C[C@H](N)[C@H](O)[C@H](C)O1 [doxorubicin, reference compound] | 9.5 °C | – | – | – | – | – | IC50 ([1]; Homo sapiens, HeLa): 0.91 ± 0.2 µM; IC50 ([2]; Homo sapiens, A549, 48 h, averaged over three experiments, read-out: Half maximum inhibitory concentration (IC50), A-549): 0.85 ± 0.1 µM; IC50 ([3]; Homo sapiens, DU-145, 48 h): 1.28 ± 0.2 µM |
| [(η^5-C5Me5)4Ir4(μ2-1,2-bis(4-pyridyl)ethylene-ĸN)2(μ4-C6HRO4-ĸO)2](CF3SO3)4 [[8](CF3SO3)4] | 12.7 °C | 70.8 ± 0.4 µM | 0.59 ± 0.2 µM | 0.67 ± 0.4 µM | continuous increase of its intensity | 0.72 ± 0.2 µM | Selectivity for cancerous over noncancerous cells (HEK-293) [5]: two orders of magnitude; IC50 [2, 12]: ~0.67 µM; Change of the positive CD band of CT DNA (275 nm) [7]: higher hyperchromicity; Early apoptotic (%) [8]: 1.58%; Late apoptotic (%) [8]: 13.04%; Necrotic (%) [8]: 22.92%; Living cells (%) [8]: 62.46%; Total apoptotic cells (%) [8]: 14.62%; Sub G1 (%) [9]: 11.98%; G2/M (%) [9]: 3.49%; S (%) [9]: 7.95%; G0/G1 (%) [9]: 66.54% |
| [(η^5-C5Me5)4Ir4(μ2-4,4'-bipyridine-ĸN)2(μ4-C6HRO4-ĸO)2](CF3SO3)4 [[6](CF3SO3)4] | 7.9 °C | 40.3 ± 0.4 µM | 1.04 ± 0.3 µM | 0.84 ± 0.1 µM | continuous increase of its intensity | 2.53 ± 0.2 µM | – |
| [(η^5-C5Me5)4Ir4(μ2-pyrazine-ĸN)2(μ4-C6HRO4-ĸO)2](CF3SO3)4 [[4](CF3SO3)4] | 6.8 °C | 31.2 ± 0.5 µM | 4.16 ± 0.3 µM | 3.18 ± 0.2 µM | continuous increase of its intensity | 16 ± 0.4 µM | – |
| [(η^5-C5Me5)4Rh4(μ2-1,2-bis(4-pyridyl)ethylene-ĸN)2(μ4-C6HRO4-ĸO)2](CF3SO3)4 [[7](CF3SO3)4] | 8.2 °C | 62.1 ± 0.3 µM | 5.75 ± 0.2 µM | 2.01 ± 0.2 µM | same hyperchromicity | 4.98 ± 0.3 µM | – |
| [(η^5-C5Me5)4Rh4(μ2-4,4'-bipyridine-ĸN)2(μ4-C6HRO4-ĸO)2](CF3SO3)4 [[5](CF3SO3)4] | 7.3 °C | 41.3 ± 0.4 µM | 1.01 ± 0.3 µM | 0.67 ± 0.1 µM | same hyperchromicity | 4.67 ± 0.2 µM | – |
| [(η^5-C5Me5)4Rh4(μ2-pyrazine-ĸN)2(μ4-C6HRO4-ĸO)2](CF3SO3)4 [[3](CF3SO3)4] | 12.9 °C | 62 ± 0.5 µM | 0.52 ± 0.2 µM | 0.5 ± 0.1 µM | same hyperchromicity | 0.54 ± 0.2 µM | Selectivity for cancerous over noncancerous cells (HEK-293) [5]: two orders of magnitude; Effect on mitochondria distribution (MitoTracker Red) [10]: aggregations of mitochondria were observed; IC50 ([1]; listed as [3]^4+): 0.5 µM; IC50 [2, 12]: ~0.5 µM; Change of the positive CD band of CT DNA (275 nm) [7]: slight hyperchromicity; Early apoptotic (%) [8]: 4.73%; Late apoptotic (%) [8]: 23.30%; Necrotic (%) [8]: 11.57%; Living cells (%) [8]: 60.40%; Total apoptotic cells (%) [8]: 28.03%; Total apoptotic cells (%) ([8]; listed as 3): about 28.03%; IC50 ([3]; 48 h, listed as [3]^4+): 0.5 µM; Melting temperature of CT DNA in the presence of the compound ([4]; CT DNA alone 59.3 °C): 72.2 °C; Sub G1 (%) [9]: 31.97%; G2/M (%) [9]: 1.35%; S (%) [9]: 2.87%; G0/G1 (%) [9]: 56.29% |
